pIC50: −log10 of the molar value.
Columns and labels:
cortical neurons = experiment: Cortical neuron survival assay against NMDA excitotoxicity (LDH); format: cell-based, Sprague-Dawley rats; conditions: 30 μM 24 hrs, NMDA 10-200 μM 20 min; at high concentrations of NMDA
Description: FIG. 12. Derivatives of DA001 rescue the cortical neurons from NMDA excitotoxicity. Cortical neurons were treated with compounds derived from of DA001 (30 μM) 24 hours prior to NMDA treatment. LDH released into the medium were measured 24 hours after NMDA treatment. Data are expressed as mean±s.e.m. and compared to solvent control (DMSO). *=P<0.05.
Hippocampal neurons/cortical neurons were prepared from embryonic day 18 Sprague-Dawley rats. […] Afterwards, cells were incubated in growth medium for 18-24 hours and detected with Cytotoxicity Detection Kit (1644793, Roche).
Cortical neurons were treated with DA021 or DA034 and subsequently subjected to varying concentrations of NMDA. […] LDH release into the medium was then measured.
Compounds with strong protective effect (>80% survival) against NMDA excitotoxicity are prototype DA001, derivatives DA010, DA021, DA034, DA040, DA081 and DA088. […] LDH released into the medium were measured 24 hours after NMDA treatment. Data are expressed as averaged percentage of cell survival (±s.e.m) calculated against solvent control (DMSO) and compared to no NMDA control (set as 100% survival). […]

EP1 receptor = target: T1, EP1 receptor (Homo sapiens, UniProt P34995); experiment: Radioligand competition binding assay, EP1; conditions: EP1, target PGE2; compound at 10 μM in duplicate; read-out: % inhibition of control specific binding
T1 sequence (P34995 1-402): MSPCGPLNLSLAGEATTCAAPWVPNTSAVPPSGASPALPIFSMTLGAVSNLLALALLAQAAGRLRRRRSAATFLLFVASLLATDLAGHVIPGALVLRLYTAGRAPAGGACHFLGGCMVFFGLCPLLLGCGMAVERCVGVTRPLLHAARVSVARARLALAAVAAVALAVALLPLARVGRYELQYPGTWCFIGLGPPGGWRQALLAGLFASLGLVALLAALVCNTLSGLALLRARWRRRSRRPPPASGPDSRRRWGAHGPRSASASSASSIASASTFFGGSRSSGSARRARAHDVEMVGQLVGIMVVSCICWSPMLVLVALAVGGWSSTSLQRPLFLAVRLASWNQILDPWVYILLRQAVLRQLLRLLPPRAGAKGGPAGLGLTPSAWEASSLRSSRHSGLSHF
Description: (§1) DA001 was further evaluated against 32 receptor binding assays. Radioligand competition assays were conducted whereby DA001 was tested at one concentration (10 uM) in duplicate. […] It could compete with the radioligand [^3H] PGE2 binding at the EP1 and EP4 receptors, and weakly competed with the EP2 and FP receptors.
(§2) To determine the targets of DA compounds, the compound was assessed in binding assays for the family of prostanoid receptors. Both compounds were tested at a single concentration (10 μM) in duplicate. DA001 and DA021 inhibit the ligand binding of prostaglandin E2 receptors EP1, EP2 and EP4 and moderately to prostaglandin (PGF) to its receptor (FP), but not prostaglandin I (PGI2), thromoboxane A and prostaglandin D2 to their receptors.

TP receptor = TP receptor (Homo sapiens, UniProt P21731); experiment: Radioligand competition binding assay, TP; conditions: target Thromoboxanes A, compound at 10 μM in duplicate, read-out: % inhibition of control specific binding
Sequence of TP receptor (P21731 whole entry): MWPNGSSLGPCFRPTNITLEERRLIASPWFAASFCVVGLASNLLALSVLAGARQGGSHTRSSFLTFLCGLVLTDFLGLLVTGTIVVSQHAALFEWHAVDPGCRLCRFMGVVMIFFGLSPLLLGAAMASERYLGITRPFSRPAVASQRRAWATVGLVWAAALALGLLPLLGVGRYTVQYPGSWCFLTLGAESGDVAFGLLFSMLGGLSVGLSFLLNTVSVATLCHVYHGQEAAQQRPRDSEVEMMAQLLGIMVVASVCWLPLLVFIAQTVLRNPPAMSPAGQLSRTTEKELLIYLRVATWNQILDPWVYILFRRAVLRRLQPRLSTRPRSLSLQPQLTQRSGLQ
Description: as §1, §2

EP2 receptor = EP2 receptor (Homo sapiens, UniProt P43116); experiment: Cellular receptor functional assay (cAMP), EP2; format: cell-based; set-up: expressed in transfected cells; conditions: for Agonist effect, cAMP measurement / Antagonist effect, cAMP measurement: EP2 receptor; for Antagonist effect, cAMP measurement: in presence of PGE2
Sequence of EP2 receptor (P43116 whole entry): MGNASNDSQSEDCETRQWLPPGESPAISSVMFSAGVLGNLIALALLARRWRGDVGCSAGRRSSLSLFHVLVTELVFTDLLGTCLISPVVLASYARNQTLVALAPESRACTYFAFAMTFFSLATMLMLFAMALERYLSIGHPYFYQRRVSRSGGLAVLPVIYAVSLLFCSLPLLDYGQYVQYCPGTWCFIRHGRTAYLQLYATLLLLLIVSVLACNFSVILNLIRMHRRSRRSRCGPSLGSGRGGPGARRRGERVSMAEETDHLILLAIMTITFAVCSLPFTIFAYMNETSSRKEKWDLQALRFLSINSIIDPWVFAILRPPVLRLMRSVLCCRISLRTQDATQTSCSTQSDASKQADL
Description: FIG. 13. […] A: Cellular functional assay for EP2; B: Cellular functional assay for […].
To determine whether the inhibitory effect of DA001 on the ligand binding to EP receptors results from agonist or antagonist activity, DA001 was evaluated at a single concentration (10 μM) on cellular-specific receptor functional assays. Upon ligand binding, the EP receptors are activated which leads to an increase in intracellular cyclic AMP.
DA001 was evaluated at 6 concentrations in cellular assays assessing receptor function. Upon ligand binding, the EP2 and EP4 receptor is activated which leads to an increase in intracellular cyclic AMP.
DA021 inhibits PGE2 ligand binding to EP1, EP2 and EP4 receptors. To determine whether the inhibitory effect is due to agonist or antagonist activity, DA021 was evaluated and compared at 1 concentration (30 uM) in cellular assays assessing receptor function. Upon ligand binding, the EP receptors are activated which leads to an increase in intracellular cyclic AMP.

Row | SMILES | cell death (LDH release) vs DMSO control (cortical neurons) | inhibition at 10 µM (EP1 receptor) [%] | inhibition at 10 µM (TP receptor) [%] | Agonist effect, cAMP measurement (EP2 receptor; 10 μM) [%] | Antagonist effect, cAMP measurement (EP2 receptor; 10 μM) [%] | pIC50 (EP2 receptor; inhibition of PGE2-induced cAMP increase, 6 concentrations, read-out: IC50, antagonist effect) | Agonist effect, cAMP measurement (EP2 receptor; 30 uM) | Antagonist effect, cAMP measurement (EP2 receptor; 30 uM)
1 | CC(=O)OC[C@]12CC[C@@H](C3(C)CO3)C1C1CCC3[C@@]4(C)CC[C@H](O)[C@@](C)(CO)[C@@H]4CC[C@@]3(C)[C@]1(C)CC2 (some centres unmarked) [DA034] | significant reduction in cell death | – | – | – | – | – | – | –
2 | C=C(C)[C@@H]1CC[C@]2(C(=O)O)CC[C@]3(C)C(CC[C@@H]4[C@@]5(C)CC[C@H](O[C@@H]6OC[C@H](O)[C@H](O)[C@H]6O[C@@H]6O[C@@H](C)[C@H](O)[C@@H](O)[C@H]6O)[C@@](C)(CO)[C@@H]5CC[C@]43C)[C@@H]12 (stereo partly drawn) [DA001, 3-O-[α-L-rhamnopyranosyl-(1→2)-α-L-arabinopyranosyl]-3,23-dihydroxy-20(29)-lupen-28-oic acid] | – | 52 | 17 | −0.8 | 2.2 | 4.44 | – | –
3 | C=C(C)[C@@H]1CC[C@]2(/C=N/O)CC[C@]3(C)C(CCC4[C@@]5(C)CCC(=O)[C@@](C)(CO)[C@@H]5CC[C@]43C)C12 (some centres unmarked) [DA021] | significant reduction in cell death | 31 | 17 | – | – | – | −3 | 4
